In PMC5218480 (PLoS ONE, 2017):

Tested on: MV-4-11 cells
Test: Gene expression microarray analysis (Affymetrix PrimeView) and GSEA
Format: cell-based, human
Set-up: RFU PODN (11730768_x_at) / Fold change /veh PODN (11730768_x_at) / RFU LINC00158 (11744669_a_at) / Fold change /veh LINC00158 (11744669_a_at) / RFU DUSP10 (11751237_a_at) / Fold change /veh DUSP10 (11751237_a_at) / RFU ID3 (11757404_x_at) / Fold change /veh ID3 (11757404_x_at) / RFU PLEKHG5 (11737974_s_at) / Fold change /veh PLEKHG5 (11737974_s_at) / RFU LRRC4B (11730491_at) / Fold change /veh LRRC4B (11730491_at) / RFU GIMAP4 (11747438_a_at) / Fold change /veh GIMAP4 (11747438_a_at) / RFU KRT8 (11758183_x_at) / Fold change /veh KRT8 (11758183_x_at) / RFU CNN1 (11734310_a_at) / Fold change /veh CNN1 (11734310_a_at) / RFU VPS37D (11726825_at) / Fold change /veh VPS37D (11726825_at) / RFU C10orf10 (11716522_x_at) / Fold change /veh C10orf10 (11716522_x_at) / RFU KIR2DL2 /// KIR2DL4 /// KIR2DL5A /// KIR2DL5B /// KIR2DS1 /// KIR2DS2 /// KIR2DS3 /// KIR2DS4 /// KIR3DL3 /// KIR3DL3 /// KIR3DS1 (11738374_at) / Fold change /veh KIR2DL2 /// KIR2DL4 /// KIR2DL5A /// KIR2DL5B /// KIR2DS1 /// KIR2DS2 /// KIR2DS3 /// KIR2DS4 /// KIR3DL3 /// KIR3DL3 /// KIR3DS1 (11738374_at) / RFU C1QL1 (11718748_at) / Fold change /veh C1QL1 (11718748_at) / RFU TMPRSS4 (11747572_a_at) / Fold change /veh TMPRSS4 (11747572_a_at) / RFU HAMP (11756126_x_at) / Fold change /veh HAMP (11756126_x_at) / RFU RNFT2 (11725882_a_at) / Fold change /veh RNFT2 (11725882_a_at) / RFU NR4A2 (11747474_a_at) / Fold change /veh NR4A2 (11747474_a_at) / RFU ABCC12 (11746883_a_at) / Fold change /veh ABCC12 (11746883_a_at) / RFU TMEM136 (11760407_x_at) / Fold change /veh TMEM136 (11760407_x_at) / RFU CLDN22 /// WWC2 (11732394_at) / Fold change /veh CLDN22 /// WWC2 (11732394_at) / RFU HLA-DPB1 (11760878_x_at) / Fold change /veh HLA-DPB1 (11760878_x_at) / RFU SPINT1 (11716480_a_at) / Fold change /veh SPINT1 (11716480_a_at) / RFU GAP43 (11754022_s_at) / Fold change /veh GAP43 (11754022_s_at) / RFU A4GNT (11735810_at) / Fold change /veh A4GNT (11735810_at) / RFU PRB3 (11715151_x_at) / Fold change /veh PRB3 (11715151_x_at) / RFU TUBB4B (11761932_at) / Fold change /veh TUBB4B (11761932_at) / RFU CAPN14 (11732068_a_at) / Fold change /veh CAPN14 (11732068_a_at) / RFU TMCC2 (11721928_a_at) / Fold change /veh TMCC2 (11721928_a_at) / RFU IRGQ (11745062_a_at) / Fold change /veh IRGQ (11745062_a_at) / RFU FAM174B (11720279_a_at) / Fold change /veh FAM174B (11720279_a_at) / RFU TMPRSS4 (11748680_a_at) / Fold change /veh TMPRSS4 (11748680_a_at) / RFU FAM212B (11763350_a_at) / Fold change /veh FAM212B (11763350_a_at) / RFU PLEKHG5 (11743358_a_at) / Fold change /veh PLEKHG5 (11743358_a_at) / RFU ZSCAN30 (11745921_a_at) / Fold change /veh ZSCAN30 (11745921_a_at) / RFU CMKLR1 (11741424_a_at) / Fold change /veh CMKLR1 (11741424_a_at) / RFU LOC101060620 /// MAPK8IP1 (11723275_at) / Fold change /veh LOC101060620 /// MAPK8IP1 (11723275_at) / RFU SPTSSB (11747773_x_at) / Fold change /veh SPTSSB (11747773_x_at) / RFU PRSS12 (11739890_at) / Fold change /veh PRSS12 (11739890_at) / RFU BIN1 (11741810_x_at) / Fold change /veh BIN1 (11741810_x_at) / RFU WNT11 (11732464_a_at) / Fold change /veh WNT11 (11732464_a_at) / RFU C10orf10 (11716521_a_at) / Fold change /veh C10orf10 (11716521_a_at) / RFU C5orf56 (11738089_at) / Fold change /veh C5orf56 (11738089_at) / RFU CYB561 (11721691_x_at) / Fold change /veh CYB561 (11721691_x_at) / RFU ANKRD19P (11752326_a_at) / Fold change /veh ANKRD19P (11752326_a_at) / RFU OR2T12 /// OR2T33 /// OR2T8 (11738714_s_at) / Fold change /veh OR2T12 /// OR2T33 /// OR2T8 (11738714_s_at) / RFU VCAN (11748164_a_at) / Fold change /veh VCAN (11748164_a_at) / RFU JSRP1 (11732532_at) / Fold change /veh JSRP1 (11732532_at) / RFU KRTAP10-11 (11738290_x_at) / Fold change /veh KRTAP10-11 (11738290_x_at) / RFU MYO3A (11730013_a_at) / Fold change /veh MYO3A (11730013_a_at) / RFU EBF3 (11725865_a_at) / Fold change /veh EBF3 (11725865_a_at) / RFU CAMK2N1 (11719241_x_at) / Fold change /veh CAMK2N1 (11719241_x_at) / RFU C5orf56 (11738088_a_at) / Fold change /veh C5orf56 (11738088_a_at) / RFU OLFML3 (11715873_a_at) / Fold change /veh OLFML3 (11715873_a_at) / RFU LOC100653217 /// NTM (11731650_a_at) / Fold change /veh LOC100653217 /// NTM (11731650_a_at) / RFU MAPK11 (11762145_a_at) / Fold change /veh MAPK11 (11762145_a_at) / RFU FIZ1 (11724087_x_at) / Fold change /veh FIZ1 (11724087_x_at) / RFU OASL (11726364_x_at) / Fold change /veh OASL (11726364_x_at) / RFU SOX15 (11748057_x_at) / Fold change /veh SOX15 (11748057_x_at) / RFU CD79A (11719716_a_at) / Fold change /veh CD79A (11719716_a_at) / RFU HIST1H1D (11736915_at) / Fold change /veh HIST1H1D (11736915_at) / RFU CASKIN2 (11723855_a_at) / Fold change /veh CASKIN2 (11723855_a_at) / RFU LOC730098 (11760151_x_at) / Fold change /veh LOC730098 (11760151_x_at) / RFU OR4N2 (11742367_at) / Fold change /veh OR4N2 (11742367_at) / RFU PRRT2 (11749266_a_at) / Fold change /veh PRRT2 (11749266_a_at) / RFU SNX32 (11753110_a_at) / Fold change /veh SNX32 (11753110_a_at) / RFU CDHR5 (11726645_a_at) / Fold change /veh CDHR5 (11726645_a_at) / RFU RCAN1 (11760418_a_at) / Fold change /veh RCAN1 (11760418_a_at) / RFU FAM167A (11723789_a_at) / Fold change /veh FAM167A (11723789_a_at) / RFU FAM26E (11764081_at) / Fold change /veh FAM26E (11764081_at) / RFU ISYNA1 (11749810_s_at) / Fold change /veh ISYNA1 (11749810_s_at) / RFU ACY1 (11761880_at) / Fold change /veh ACY1 (11761880_at) / RFU 11764098_at / Fold change /veh 11764098_at / RFU SAMD14 (11745864_x_at) / Fold change /veh SAMD14 (11745864_x_at) / RFU NPB (11741838_a_at) / Fold change /veh NPB (11741838_a_at) / RFU TMPRSS6 (11731388_a_at) / Fold change /veh TMPRSS6 (11731388_a_at) / RFU KRTAP10-2 (11738614_at) / Fold change /veh KRTAP10-2 (11738614_at) / RFU ARHGAP8 /// PRR5-ARHGAP8 (11727945_x_at) / Fold change /veh ARHGAP8 /// PRR5-ARHGAP8 (11727945_x_at) / RFU KRTAP5-7 /// NADSYN1 (11734609_at) / Fold change /veh KRTAP5-7 /// NADSYN1 (11734609_at) / RFU RASL12 (11751679_a_at) / Fold change /veh RASL12 (11751679_a_at) / RFU CDKN2B (11736163_a_at) / Fold change /veh CDKN2B (11736163_a_at) / RFU PRF1 (11729649_at) / Fold change /veh PRF1 (11729649_at) / RFU, ZNF638 /// ZNF638-IT1 / Fold change vs veh, ZNF638 /// ZNF638-IT1 / RFU, PANK3 / Fold change vs veh, PANK3 / RFU, SH3YL1 / Fold change vs veh, SH3YL1 / RFU, ZEB2 / Fold change vs veh, ZEB2 / RFU, NRIP1 / Fold change vs veh, NRIP1 / RFU, PTTG1IP / Fold change vs veh, PTTG1IP / RFU, CAPN2 / Fold change vs veh, CAPN2 / RFU, MED14 / Fold change vs veh, MED14 / RFU, SNORA58 / Fold change vs veh, SNORA58 / RFU, C1orf63 / Fold change vs veh, C1orf63 / RFU, LRRFIP1 / Fold change vs veh, LRRFIP1 / RFU, NDUFAF7 / Fold change vs veh, NDUFAF7 / RFU, SLC12A2 / Fold change vs veh, SLC12A2 / RFU, IBTK / Fold change vs veh, IBTK / RFU, ESF1 / Fold change vs veh, ESF1 / Fold change vs veh, TMEM50B / RFU, TAOK1 / Fold change vs veh, TAOK1 / RFU, ACBD3 / Fold change vs veh, ACBD3 / RFU, TMA16 / Fold change vs veh, TMA16 / RFU, RWDD3 / Fold change vs veh, RWDD3 / RFU, BCAT1 / Fold change vs veh, BCAT1 / RFU, EDEM3 / Fold change vs veh, EDEM3 / RFU, TMEM33 / Fold change vs veh, TMEM33 / RFU, WDR75 / Fold change vs veh, WDR75 / RFU, AHCTF1 / Fold change vs veh, AHCTF1 / RFU, TFRC / Fold change vs veh, TFRC / RFU, ZDHHC17 / Fold change vs veh, ZDHHC17 / RFU, NOM1 / Fold change vs veh, NOM1 / RFU, ARL8B / Fold change vs veh, ARL8B / RFU, ZBTB11 / Fold change vs veh, ZBTB11 / RFU, TAMM41 / Fold change vs veh, TAMM41 / RFU, KIAA1704 /// LOC100996395 / Fold change vs veh, KIAA1704 /// LOC100996395 / RFU, ING1 / Fold change vs veh, ING1 / RFU, TRMT61B / Fold change vs veh, TRMT61B / RFU, FUBP3 / Fold change vs veh, FUBP3 / RFU, TP53 / Fold change vs veh, TP53 / RFU, TNKS2 / Fold change vs veh, TNKS2 / RFU, ZFP14 / Fold change vs veh, ZFP14 / RFU, ACTR2 / Fold change vs veh, ACTR2 / RFU, PPP3R1 / Fold change vs veh, PPP3R1 / RFU, PIK3R1 / Fold change vs veh, PIK3R1 / RFU, HNRNPA1 / Fold change vs veh, HNRNPA1 / RFU, RNF170 / Fold change vs veh, RNF170 / RFU, ZNF28 / Fold change vs veh, ZNF28 / RFU, RNGTT / Fold change vs veh, RNGTT / RFU, OGT / Fold change vs veh, OGT / RFU, BRD1 / Fold change vs veh, BRD1 / RFU, MARS / Fold change vs veh, MARS / RFU, ZNF655 / Fold change vs veh, ZNF655 / RFU, FAHD1 / Fold change vs veh, FAHD1 / RFU, BDP1 / Fold change vs veh, BDP1 / RFU, LRRCC1 / Fold change vs veh, LRRCC1 / RFU, ARID1A / Fold change vs veh, ARID1A / RFU, ZNF146 / Fold change vs veh, ZNF146 / RFU, ZNF330 / Fold change vs veh, ZNF330 / RFU, GPN3 / Fold change vs veh, GPN3 / RFU, C9orf123 / Fold change vs veh, C9orf123 / RFU, N4BP2L2 / Fold change vs veh, N4BP2L2 / RFU, ARFIP1 / Fold change vs veh, ARFIP1 / RFU, FAM179B / Fold change vs veh, FAM179B / RFU, BCL10 / Fold change vs veh, BCL10 / RFU, UHRF1BP1L / Fold change vs veh, UHRF1BP1L / RFU, BET1 / Fold change vs veh, BET1 / RFU, CNOT2 / Fold change vs veh, CNOT2 / RFU, ZNF268 / Fold change vs veh, ZNF268 / Fold change vs veh, ZNF507 / RFU, DGCR2 / Fold change vs veh, DGCR2 / RFU, WDSUB1 / Fold change vs veh, WDSUB1 / Fold change vs veh, HSP90B1 /// MIR3652 / RFU, ADSS / Fold change vs veh, ADSS / RFU, GK / Fold change vs veh, GK / RFU, ZNF148 / Fold change vs veh, ZNF148 / RFU, TAF9 / Fold change vs veh, TAF9 / RFU, SLC1A5 / Fold change vs veh, SLC1A5 / RFU, SLMO2 / Fold change vs veh, SLMO2 / RFU, ABCC4 / Fold change vs veh, ABCC4 / RFU, LOC101060439 /// RAP1B / Fold change vs veh, LOC101060439 /// RAP1B / RFU, RFX7 / Fold change vs veh, RFX7 / RFU, GTPBP10 / Fold change vs veh, GTPBP10 / RFU, CNEP1R1 / Fold change vs veh, CNEP1R1 / RFU, BIVM-ERCC5 /// ERCC5 / Fold change vs veh, BIVM-ERCC5 /// ERCC5 / RFU, ILF3 / Fold change vs veh, ILF3 / RFU 11762660_at / Fold change /veh 11762660_at / RFU VCAN (11757783_s_at) / Fold change /veh VCAN (11757783_s_at) / RFU DDX43 (11728927_at) / Fold change /veh DDX43 (11728927_at) / RFU KRT8 (11758188_x_at) / Fold change /veh KRT8 (11758188_x_at) / RFU NKD1 (11759106_at) / Fold change /veh NKD1 (11759106_at) / RFU SRD5A1 (11742802_a_at) / Fold change /veh SRD5A1 (11742802_a_at) / RFU TPSAB1 /// TPSB2 (11721975_s_at) / Fold change /veh TPSAB1 /// TPSB2 (11721975_s_at) / RFU GSTM3 (11746129_a_at) / Fold change /veh GSTM3 (11746129_a_at) / RFU IL23R (11737362_x_at) / Fold change /veh IL23R (11737362_x_at) / RFU TMEM51 (11727254_a_at) / Fold change /veh TMEM51 (11727254_a_at) / RFU PIWIL2 (11732686_x_at) / Fold change /veh PIWIL2 (11732686_x_at) / RFU ORM1 (11744905_x_at) / Fold change /veh ORM1 (11744905_x_at) / RFU CCDC152 (11743942_at) / Fold change /veh CCDC152 (11743942_at) / RFU ECM1 (11717891_a_at) / Fold change /veh ECM1 (11717891_a_at) / RFU IL23R (11748794_a_at) / Fold change /veh IL23R (11748794_a_at) / RFU TNFAIP8L3 (11732012_x_at) / Fold change /veh TNFAIP8L3 (11732012_x_at) / RFU MBOAT4 (11741988_at) / Fold change /veh MBOAT4 (11741988_at) / RFU 11764193_at / Fold change /veh 11764193_at / RFU TMEM53 (11763286_at) / Fold change /veh TMEM53 (11763286_at) / RFU MAGEB2 (11727129_at) / Fold change /veh MAGEB2 (11727129_at) / RFU TMEM200A (11744735_a_at) / Fold change /veh TMEM200A (11744735_a_at) / RFU CCDC152 (11751479_a_at) / Fold change /veh CCDC152 (11751479_a_at) / RFU FAM211A (11726209_a_at) / Fold change /veh FAM211A (11726209_a_at) / RFU RGS16 (11746705_a_at) / Fold change /veh RGS16 (11746705_a_at) / RFU VCAN (11755009_s_at) / Fold change /veh VCAN (11755009_s_at) / RFU RHOB (11743442_s_at) / Fold change /veh RHOB (11743442_s_at) / RFU RGS16 (11720943_a_at) / Fold change /veh RGS16 (11720943_a_at) / RFU RGS16 (11720944_at) / Fold change /veh RGS16 (11720944_at) / RFU, VPS4B / Fold change vs veh, VPS4B / RFU, CREB1 / Fold change vs veh, CREB1 / RFU, DNAJC13 / Fold change vs veh, DNAJC13 / RFU, GNAQ / Fold change vs veh, GNAQ / RFU, CDK5R1 / Fold change vs veh, CDK5R1 / RFU, ZRANB3 / Fold change vs veh, ZRANB3 / RFU, CUL4A / Fold change vs veh, CUL4A / RFU, CCNY / Fold change vs veh, CCNY / RFU, UFL1 / Fold change vs veh, UFL1 / RFU, COG3 / Fold change vs veh, COG3 / RFU, DIAPH2 / Fold change vs veh, DIAPH2 / RFU, SKA2 / Fold change vs veh, SKA2 / RFU, AFF3 / Fold change vs veh, AFF3 / RFU, LMF1 / Fold change vs veh, LMF1 / RFU, IPO11 / Fold change vs veh, IPO11 / RFU, DFFB / Fold change vs veh, DFFB / RFU, FOXP1 / Fold change vs veh, FOXP1 / RFU, CARD8 / Fold change vs veh, CARD8 / RFU, STRN3 / Fold change vs veh, STRN3 / RFU, ADK / Fold change vs veh, ADK / RFU, RASSF2 / Fold change vs veh, RASSF2 / RFU, WIPF1 / Fold change vs veh, WIPF1 / RFU, LARP1B / Fold change vs veh, LARP1B / RFU, RASA1 / Fold change vs veh, RASA1 / RFU, RB1 / Fold change vs veh, RB1 / RFU, PPFIA1 / Fold change vs veh, PPFIA1 / RFU, MAT2A / Fold change vs veh, MAT2A / RFU, CCT5 / Fold change vs veh, CCT5 / RFU, WDR92 / Fold change vs veh, WDR92 / RFU, CUX1 / Fold change vs veh, CUX1 / RFU, TTC7A / Fold change vs veh, TTC7A / RFU, TMEM135 / Fold change vs veh, TMEM135 / RFU, DEPTOR / Fold change vs veh, DEPTOR / RFU, CPM / Fold change vs veh, CPM / RFU, DNAJB6 / Fold change vs veh, DNAJB6 / RFU, CACNA2D3 / Fold change vs veh, CACNA2D3 / RFU, DTX4 / Fold change vs veh, DTX4 / RFU, TFCP2 / Fold change vs veh, TFCP2 / RFU, GMCL1 /// GMCL1P1 / Fold change vs veh, GMCL1 /// GMCL1P1 / RFU, AEBP2 / Fold change vs veh, AEBP2 / RFU, SNHG1 /// SNORD22 /// SNORD25 /// SNORD26 /// SNORD27 /// SNORD28 /// SNORD29 /// SNORD31 / Fold change vs veh, SNHG1 /// SNORD22 /// SNORD25 /// SNORD26 /// SNORD27 /// SNORD28 /// SNORD29 /// SNORD31 / Fold change (Aza/veh), C12orf56 (ProbeSet 11735607_a_at) / Fold change (ACY-1035/veh), C12orf56 (ProbeSet 11735607_a_at) / Fold change (Aza/veh), FGFR1OP (ProbeSet 11751329_s_at) / Fold change (ACY-1035/veh), FGFR1OP (ProbeSet 11751329_s_at) / Fold change (Aza/veh), VPS36 (ProbeSet 11739960_a_at) / Fold change (ACY-1035/veh), VPS36 (ProbeSet 11739960_a_at) / RFU SYPL1 (11715823_x_at) / Fold change /veh SYPL1 (11715823_x_at) / RFU IGFBP7 (11715501_s_at) / Fold change /veh IGFBP7 (11715501_s_at) / RFU REEP3 (11722064_at) / Fold change /veh REEP3 (11722064_at) / RFU IGLL1 (11728026_x_at) / Fold change /veh IGLL1 (11728026_x_at): dose or concentration left out as unconfirmed
Details: MV-4-11 cells, 48 hours

SMILES: Nc1ncn([C@@H]2O[C@H](CO)[C@@H](O)[C@H]2O)c(=O)n1 [azacitidine]
- Fold change /veh IL23R (11748794_a_at): 1.48
